# According to US20100184638A1, “Galanin Receptors and Brain Injury” (NeuroTargets, Ltd., priority 2004, published 2010):
# Non-standard residues stand in square brackets, D forms with d. Residues, ends and D or L forms follow the SMILES beside them. *: point of attachment. Fmoc = O=C(OCC1c2ccccc2-c2ccccc21)*; Cha = N[C@@H](CC1CCCCC1)C(=O)O; AMC = Cc1cc(=O)oc2cc(N*)ccc12
# Key:
# [1] = tested on: GALR1 and GALR2; conditions: cited from earlier work
# [2] = tested on: organotypic hippocampal cultures; assay: Staurosporine-induced cell death in organotypic hippocampal cultures (propidium iodide); assay type: cell-based, mouse; conditions: for percentage cell death: n=4
# Experimental: Organotypic cultures were prepared as previously described (Elliott-Hunt et al. (2002) J. Neurochem. 80 416-425; Stoppini et al. (1991) J. Neurosci. Methods 37 173-182). Briefly, the hippocampi from 5-6 day old pups were rapidly removed under a dissection microscope and sectioned transversely at 400 μm using a McIlwain tissue chopper (Mickle Laboratory Engineering Co. Ltd., Gomshall, UK). The slices were cultured in 95% air and 5% CO2 at 37° C. on a microporous transmembrane biopore membrane (Millipore, Poole, UK), in a 6-well plate, in 50% minimal essential medium with Earle's Salts (Gibco BRL, Paisley, UK) without L-glutamine, […] Hanks Balanced Salt Solution (Gibco BRL), 25% Horse Serum (heat inactivated; Harlan Serum Labs, Loughborough, UK), 5 mg/ml glucose (Sigma Chemical Co., Poole, UK) and […] glutamine (Sigma).
# Fourteen day organotypic hippocampal cultures were placed in 0.1% BSA with serum free media for 16 hours before incubation with varying concentrations of glutamic acid for 3 hours or staurosporine for 9 hours. Staurosporine and glutamate are both known to cause excitotoxic damage to such cell cultures (Prehn et al. (1997) J. Neurochem. 68 1679-1685; Ohmori et al. (1996) Brain Res. 743 109-115). Cultures were washed with serum-free medium and incubated for a further 24 hours before imaging. Regional patterns of neuronal injury in the organotypic cultures were observed by performing experiments in the presence of propidium iodide. After membrane injury, the dye enters cells, binds to nucleic acids and accumulates, rendering the cell brightly fluorescent (Vornov et al. (1994) Stroke 25 457-465). […] Neuronal damage in the area encompassing the CA1 region was assessed using the density slice function in NIH Image software (Scion Image, MD, USA) to establish signal above background. The area of the subfields expressing the exclusion dye propidium iodide was measured, and expressed as a percentage of the total area of the subfields as assessed in the bright field image. Furthermore, for consistency in setting the parameters accurately when using the density slice function, the threshold was set against a positive control set of cultures exposed to 10 mM glutamate.
# (SEQ ID NO: 1) (AstraZeneca, Montreal, Quebec, Canada), amyloid-β (1-42) (Aβ (1-42)) and the reverse Aβ (42-1) peptide (American Peptide Company, Sunnyvale, Calif. 93906). Before use in the experiments below, the Aβ (1-42) was induced to form fibrils by pre-incubation in culture medium. Specifically, 0.45 mg of Aβ peptide was dissolved in 20 μl of dimethyl sulfoxide (DMSO-Sigma) and diluted to a 100-μM stock solution in medium, which was then incubated with gentle shaking at room temperature for 24 hours.
# To further dissect the neuroprotective role played by galanin in a more tractable in vitro system, both primary dispersed and organotypic hippocampal cultures (Elliott-Hunt, 2002) were used. These two techniques are complimentary since the dispersed hippocampal cultures ensure that observed effects are neuron-specific, whilst the organotypic cultures preserve the synaptic and anatomical organisation of the neuronal circuitry (Elliott-Hunt, 2002) as well as retaining many of the functional characteristics found in vivo (Adamschik et al. (2000) Brain Res. Prot. 5 153-158). The effects of staurosporine and glutamate on neuronal cell death in hippocampal cultures (Prehn, 1997; Ohmori, 1996) were studied. Cell death was visualised by propidium iodide staining. Results are expressed as a percentage of the area expressing fluorescence as compared with the untreated “control” cultures.
# [3] = tested on: organotypic hippocampal cultures; assay: Glutamate-induced cell death in organotypic hippocampal cultures (propidium iodide); assay type: cell-based, mouse; conditions: 4 mM glutamate, 9 hour exposure, n=4
# Experimental: Organotypic cultures were prepared as previously described (Elliott-Hunt et al. (2002) J. Neurochem. 80 416-425; Stoppini et al. (1991) J. Neurosci. Methods 37 173-182). Briefly, the hippocampi from 5-6 day old pups were rapidly removed under a dissection microscope and sectioned transversely at 400 μm using a McIlwain tissue chopper (Mickle Laboratory Engineering Co. Ltd., Gomshall, UK). […]
# Staurosporine and glutamate are both known to cause excitotoxic damage to such cell cultures (Prehn et al. (1997) J. Neurochem. 68 1679-1685; Ohmori et al. (1996) Brain Res. 743 109-115). […] Neuronal damage in the area encompassing the CA1 region was assessed using the density slice function in NIH Image software (Scion Image, MD, USA) to establish signal above background. The area of the subfields expressing the exclusion dye propidium iodide was measured, and expressed as a percentage of the total area of the subfields as assessed in the bright field image. […]
# To further dissect the neuroprotective role played by galanin in a more tractable in vitro system, both primary dispersed and organotypic hippocampal cultures (Elliott-Hunt, 2002) were used. […] Results are expressed as a percentage of the area expressing fluorescence as compared with the untreated “control” cultures.
# [4] = tested on: GALR2; conditions: cited from earlier work
molecule,measurement,setting,value
Cc1cc(=O)oc2cc(NC(=O)[C@H](CCCCN)NC(=O)[C@H](CC3CCCCC3)NC(=O)OCC3c4ccccc4-c4ccccc43)ccc12 [Galnon] (Fmoc-[Cha]-Lys-{AMC}),activation of other GPCR receptors including the neurotensin receptor,[1],also activates a number of other GPCR receptors
same,agonistic activity at GALR1 and GALR2,[1],equally activates and has agonistic activity to both GALR1 and GALR2
"CN[C@@H]1C[C@H]2O[C@@](C)([C@@H]1OC)n1c3ccccc3c3c4c(c5c6ccccc6n2c5c31)C(=O)NC4 [Staurosporine, staurosporine]",percentage cell death,"[2]; 100 nM staurosporine, galanin knockout organotypic cultures",65±10%
same,percentage cell death,"[2]; 100 nM staurosporine, wild-type organotypic cultures",40±26%
same,percentage cell death,"[2]; 1 μM staurosporine, galanin knockout organotypic cultures",68±0.5%
same,percentage cell death,"[2]; 1 μM staurosporine, wild-type organotypic cultures",38±8%
"N[C@@H](CCC(=O)O)C(=O)O [glutamate, L-glutamic acid]",percentage cell death,[3]; galanin knockout organotypic cultures,85±8.6%
same,percentage cell death,[3]; wild-type organotypic cultures,61±9.3%
WTLNSAGYLL [AR-M1896],binding specificity for GALR2 compared to GALR1,[4],500 fold
same,cell death,"[2]; 100 nM AR-M1896 co-administered with 100 nM staurosporine, wild-type organotypic cultures, p<0.05",significantly reduced the amount of cell death
same,reduction of staurosporine-induced cell death,[2]; galanin knockout organotypic cultures versus wild-type cultures (data not shown),as effective
same,effect in the absence of staurosporine,"[2]; organotypic or primary cultures, no staurosporine",No significant effects
